Results as given in the supplement of paper PMC10307832.

What was measured:
Assay in all cases: relative viability (nuclei count vs DMSO), 5 days (fraction); higher = more cells survive
[1] = system: NCI-H2087
Summary of the method: (§1)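 Lung cancer cell lines in 1536-well plates got either a single drug or a fixed anchor-drug dose together with five library-drug doses (not always all listed) in √10 steps, by pin tool, on the day after seeding. Nuclei were counted after 5 days, and relative viability is the treated-to-vehicle ratio of nuclei counts. Values are medians of duplicate plates.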

[2] = system: BEN
Summary of the method: as §1

[3] = system: HCC-44
Summary of the method: as §1

[4] = system: NCI-H596
Summary of the method: as §1

[5] = system: LCLC-103H
Summary of the method: as §1

[6] = system: NCI-H1993
Summary of the method: as §1

[7] = system: HARA
Summary of the method: as §1

[8] = system: EMC-BAC-2
Summary of the method: as §1

[9] = system: NCI-H2126
Summary of the method: as §1

[10] = system: LOU-NH91
Summary of the method: as §1

[11] = system: NCI-H647
Summary of the method: as §1

[12] = system: NCI-H23
Summary of the method: as §1

[13] = system: 201T
Summary of the method: as §1

[14] = system: NCI-H1395
Summary of the method: as §1

[15] = system: NCI-H3122
Summary of the method: as §1

[16] = system: NCI-H441
Summary of the method: as §1

[17] = system: NCI-H727
Summary of the method: as §1

[18] = system: NCI-H650
Summary of the method: as §1

[19] = system: NCI-H522
Summary of the method: as §1

[20] = system: NCI-H2347
Summary of the method: as §1

[21] = system: NCI-H838
Summary of the method: as §1

[22] = system: NCI-H2023
Summary of the method: as §1

CCN(CC)CCCCNc1ncc2cc(-c3cc(OC)cc(OC)c3)c(NC(=O)NC(C)(C)C)nc2n1 + CCNC(=O)c1noc(-c2cc(C(C)C)c(O)cc2O)c1-c1ccc(CN2CCOCC2)cc1 [Luminespib] (partner 0.01 µM)
relative viability ([1]; first compound 0.01 µM): 0.172
relative viability ([1]; first compound 0.03162 µM): 0.154
relative viability ([1]; first compound 0.1 µM): 0.161
relative viability ([1]; first compound 0.3162 µM): 0.177
relative viability ([1]; first compound 1 µM): 0.158
relative viability ([2]; first compound 0.01 µM): 0.249
relative viability ([2]; first compound 0.03162 µM): 0.243
relative viability ([2]; first compound 0.1 µM): 0.545
relative viability ([2]; first compound 0.3162 µM): 0.496
relative viability ([2]; first compound 1 µM): 0.297
relative viability ([3]; first compound 0.01 µM): 1.07
relative viability ([3]; first compound 0.03162 µM): 1.06
relative viability ([3]; first compound 0.1 µM): 0.801
relative viability ([3]; first compound 0.3162 µM): 1.06
relative viability ([3]; first compound 1 µM): 0.866
relative viability ([4]; first compound 0.01 µM): 1.03
relative viability ([4]; first compound 0.03162 µM): 1.05
relative viability ([4]; first compound 0.1 µM): 1.02
relative viability ([4]; first compound 0.3162 µM): 1.01
relative viability ([4]; first compound 1 µM): 0.621
relative viability ([5]; first compound 0.01 µM): 1.07
relative viability ([5]; first compound 0.03162 µM): 1.06
relative viability ([5]; first compound 0.1 µM): 0.924
relative viability ([5]; first compound 0.3162 µM): 1.01
relative viability ([5]; first compound 1 µM): 0.739
relative viability ([6]; first compound 0.01 µM): 0.401
relative viability ([6]; first compound 0.03162 µM): 0.715
relative viability ([6]; first compound 0.1 µM): 0.771
relative viability ([6]; first compound 0.3162 µM): 0.97
relative viability ([6]; first compound 1 µM): 0.666
relative viability ([7]; first compound 0.01 µM): 1.11
relative viability ([7]; first compound 0.03162 µM): 0.896
relative viability ([7]; first compound 0.1 µM): 0.948
relative viability ([7]; first compound 0.3162 µM): 0.904
relative viability ([7]; first compound 1 µM): 0.439
relative viability ([8]; first compound 0.01 µM): 1.27
relative viability ([8]; first compound 0.03162 µM): 1.16
relative viability ([8]; first compound 0.1 µM): 1.08
relative viability ([8]; first compound 0.3162 µM): 1.35
relative viability ([8]; first compound 1 µM): 1.05
relative viability ([9]; first compound 0.01 µM): 0.985
relative viability ([9]; first compound 0.03162 µM): 0.876
relative viability ([9]; first compound 0.1 µM): 0.953
relative viability ([9]; first compound 0.3162 µM): 0.92
relative viability ([9]; first compound 1 µM): 0.898
relative viability ([10]; first compound 0.01 µM): 0.338
relative viability ([10]; first compound 0.03162 µM): 0.364
relative viability ([10]; first compound 0.1 µM): 0.36
relative viability ([10]; first compound 0.3162 µM): 0.421
relative viability ([10]; first compound 1 µM): 0.356
relative viability ([11]; first compound 0.01 µM): 0.163
relative viability ([11]; first compound 0.03162 µM): 0.205
relative viability ([11]; first compound 0.1 µM): 0.222
relative viability ([11]; first compound 0.3162 µM): 0.205
relative viability ([11]; first compound 1 µM): 0.148
relative viability ([12]; first compound 0.01 µM): 0.214
relative viability ([12]; first compound 0.03162 µM): 0.203
relative viability ([12]; first compound 0.1 µM): 0.241
relative viability ([12]; first compound 0.3162 µM): 0.202
relative viability ([12]; first compound 1 µM): 0.205
relative viability ([13]; first compound 0.01 µM): 1.09
relative viability ([13]; first compound 0.03162 µM): 0.955
relative viability ([13]; first compound 0.1 µM): 1.11
relative viability ([13]; first compound 0.3162 µM): 1.08
relative viability ([13]; first compound 1 µM): 0.932
relative viability ([14]; first compound 0.01 µM): 0.659
relative viability ([14]; first compound 0.03162 µM): 0.878
relative viability ([14]; first compound 0.1 µM): 0.662
relative viability ([14]; first compound 0.3162 µM): 0.65
relative viability ([14]; first compound 1 µM): 0.48
relative viability ([15]; first compound 0.01 µM): 0.0914
relative viability ([15]; first compound 0.03162 µM): 0.082
relative viability ([15]; first compound 0.1 µM): 0.112
relative viability ([15]; first compound 0.3162 µM): 0.0822
relative viability ([15]; first compound 1 µM): 0.127
relative viability ([16]; first compound 0.01 µM): 0.313
relative viability ([16]; first compound 0.03162 µM): 0.422
relative viability ([16]; first compound 0.1 µM): 0.344
relative viability ([16]; first compound 0.3162 µM): 0.353
relative viability ([16]; first compound 1 µM): 0.362
relative viability ([17]; first compound 0.01 µM): 0.251
relative viability ([17]; first compound 0.03162 µM): 0.323
relative viability ([17]; first compound 0.1 µM): 0.28
relative viability ([17]; first compound 0.3162 µM): 0.278
relative viability ([17]; first compound 1 µM): 0.327
relative viability ([18]; first compound 0.01 µM): 0.74
relative viability ([18]; first compound 0.03162 µM): 0.729
relative viability ([18]; first compound 0.1 µM): 0.736
relative viability ([18]; first compound 0.3162 µM): 0.864
relative viability ([18]; first compound 1 µM): 0.848
relative viability ([19]; first compound 0.01 µM): 1.14
relative viability ([19]; first compound 0.03162 µM): 1.08
relative viability ([19]; first compound 0.1 µM): 1.15
relative viability ([19]; first compound 0.3162 µM): 1.13
relative viability ([19]; first compound 1 µM): 1.11
relative viability ([20]; first compound 0.01 µM): 0.675
relative viability ([20]; first compound 0.03162 µM): 0.341
relative viability ([20]; first compound 0.1 µM): 0.447
relative viability ([20]; first compound 0.3162 µM): 0.372
relative viability ([20]; first compound 1 µM): 0.526
relative viability ([21]; first compound 0.01 µM): 0.344
relative viability ([21]; first compound 0.03162 µM): 0.244
relative viability ([21]; first compound 0.1 µM): 0.304
relative viability ([21]; first compound 0.3162 µM): 0.304
relative viability ([21]; first compound 1 µM): 0.3
relative viability ([22]; first compound 0.01 µM): 0.663
relative viability ([22]; first compound 0.03162 µM): 1.05
relative viability ([22]; first compound 0.1 µM): 0.745
relative viability ([22]; first compound 0.3162 µM): 0.833
relative viability ([22]; first compound 1 µM): 0.545
